We go through 18 molecules from ChEMBL document CHEMBL1138228, “N,N'-Bisbenzylidenebenzene-1,4-diamines and N,N'-Bisbenzylidenenaphthalene-1,4-diamines as Sirtuin Type 2 (SIRT2) Inhibitors” (J Med Chem, 2006).

As a reminder, the IC50 is the midpoint of a concentration-inhibition curve. Low values mean higher potency, high ones lower potency. As usually defined, the inhibition is how much of the control response was suppressed. Low values mean a response near the control, high ones a response far below the control.

One experiment has as its target T1, NAD-dependent protein deacetylase sirtuin-2 (Homo sapiens, UniProt Q8IXJ6).
T1 sequence (Q8IXJ6 whole entry): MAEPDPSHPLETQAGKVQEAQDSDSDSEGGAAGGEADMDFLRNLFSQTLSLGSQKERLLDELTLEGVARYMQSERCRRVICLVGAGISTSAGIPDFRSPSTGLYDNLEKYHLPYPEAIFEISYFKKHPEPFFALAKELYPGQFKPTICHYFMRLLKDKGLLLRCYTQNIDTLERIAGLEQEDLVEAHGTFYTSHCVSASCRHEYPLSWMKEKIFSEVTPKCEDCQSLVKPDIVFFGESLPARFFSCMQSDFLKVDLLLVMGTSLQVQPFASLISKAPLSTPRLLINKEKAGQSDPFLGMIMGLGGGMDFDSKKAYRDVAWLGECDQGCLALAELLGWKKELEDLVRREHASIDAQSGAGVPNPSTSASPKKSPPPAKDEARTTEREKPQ
The experiment in a line: Inhibition of SIRT2.
In the case of `Oc1ccc(/C=N/c2ccc(/N=C/c3ccc(O)cc3)c3ccccc23)cc1`, the half-maximal inhibitory concentration (IC50) amounted to 137 µM.
For the molecule `Oc1ccccc1/C=N/c1ccc(/N=C/c2ccccc2O)cc1`, 58.4 µM corresponded to half-maximal inhibition (IC50).
Molecule `Oc1cccc(/C=N/c2ccc(/N=C/c3cccc(O)c3)c3ccccc23)c1` had a 50% inhibitory concentration (IC50) of 196 µM.

In a further experiment the target is T2, NAD-dependent protein deacetylase sirtuin-2 (Homo sapiens) (UniProt Q8IXJ6).
T2 sequence (whole entry): T1 sequence (Q8IXJ6 whole entry)
The experiment in a line: Inhibition of SIRT2 at 200 uM.
Turning to `Oc1ccc(/C=N/c2ccc(/N=C/c3ccc(O)cc3)c3ccccc23)cc1`, the inhibition worked out at 64%.
Still for that read-out and setting: then `Oc1ccccc1/C=N/c1ccc(/N=C/c2ccccc2O)cc1`, with 56%.
In turn, `COc1ccc(/C=N/c2ccc(/N=C/c3ccc(OC)cc3)c3ccccc23)cc1` gave an inhibition of 17%.
With `Oc1cccc(/C=N/c2ccc(/N=C/c3cccc(O)c3)cc2)c1`, the inhibition amounted to 12%.
Molecule `COc1ccccc1/C=N/c1ccc(/N=C/c2ccccc2OC)cc1` returned an inhibition of 13%.
Still for that read-out and setting: then `Oc1ccccc1/C=N/c1ccc(/N=C/c2ccccc2O)c2ccccc12`, with 38%; and `Oc1ccc(CNc2ccc(NCc3ccc(O)cc3)cc2)cc1`, with 14%; and `Oc1cccc(CNc2ccc(NCc3cccc(O)c3)cc2)c1`, with 8%.
As for `C(=N\c1ccc(/N=C/c2ccccc2)cc1)/c1ccccc1`, the inhibition was 35%.
Molecule `COc1ccccc1/C=N/c1ccc(/N=C/c2ccccc2OC)c2ccccc12` showed an inhibition of 34%.
Turning to `COc1cccc(/C=N/c2ccc(/N=C/c3cccc(OC)c3)c3ccccc23)c1`, the inhibition was 20%.
`Oc1ccccc1CNc1ccc(NCc2ccccc2O)cc1` yielded an inhibition of 27%.
Still for that read-out and setting: next, `Oc1cccc(/C=N/c2ccc(/N=C/c3cccc(O)c3)c3ccccc23)c1`: 53%.
As to `Oc1ccc(/C=N/c2ccc(/N=C/c3ccc(O)c(O)c3)cc2)cc1O`, the inhibition was found to be 13%.
`c1ccc(CNc2ccc(NCc3ccccc3)cc2)cc1` came in with an inhibition of 21%.
`Oc1ccc(/C=N/c2ccc(/N=C/c3ccc(O)cc3)cc2)cc1` gave an inhibition of 22%.
The same measure, in the same setting: next, `C(=N\c1ccc(/N=C/c2ccccc2)c2ccccc12)/c1ccccc1`: 18%.
`COc1cccc(/C=N/c2ccc(/N=C/c3cccc(OC)c3)cc2)c1` had an inhibition of 20%.
